# Key:
# physchem [1] = assay type: physicochemical; conditions: 25 °C, thermodynamic from solid
# Method: A known weight of capsaicin drug substance was weighed into a 4 ml Wheaton vial. A known volume of solvent was added and the sample placed in an ultrasonic bath for a minimum of 5 minutes. The temperature of the water bath was kept <25° C. at all times. Samples were transferred to a shaker bath at 25° C./60% RH and left for a minimum of 5 days. The samples were inspected and samples showing saturation (excess solid material remaining) removed for analysis. An additional known weight of capsaicin was added to the remaining samples and they were returned to the shaker bath. This was repeated until all samples had reached saturation.
# Samples were filtered through a 0.45 μm PVDF Millipore Millex-HV hydrophilic disposable filter into a clean Wheaton vial. Sample absorbance was determined at 280 nm using 2 mm matched cuvettes. Samples were read against their equivalent solvent blank. Where necessary samples were diluted with methanol and these samples read against a methanol blank.
# The concentration of each solution was determined by comparison with the absorbance of a capsaicin reference standard solution of known concentration.
# Tween 80 results were very promising therefore the two materials were combined to investigate any possible synergistic effect on capsaicin solubility. […]
# physchem [2] = assay type: physicochemical; conditions: for solubility at 7 days: 2 °C; for solubility at 7 days / solubility at 4 days: thermodynamic from solid; for solubility at 4 days: 25 °C; for Indicative solubility of capsaicin, Concentration mg/ml: 4 days
# Method: The solubility of capsaicin was determined for the following vehicles by adding an excess of capsaicin and determining the saturation solubility by UV analysis of the supernatant.
# Aliquots of 5 ml of each vehicle were dispensed into vials in duplicate and excess capsaicin added equivalent to 5 mg/ml. A small magnetic stirrer bar was introduced into vials containing the gel vehicle and mixed for approximately 5 minutes to disperse the capsaicin. All vials were sonicated for a total of 20 minutes maintaining the temperature below 25° C. The vials were stirred for a further hour.
# One vial from each formulation was placed at 25° C./60% RH and one vial from each formulation was placed on a shaker at 2-8° C.
# Vials were removed from 25° C./60% RH after storage for 4 days. Vials stored at 2-8° C. were removed from the shaker after storage for 4 days and returned to 2-8° C. to equilibrate further before being removed after storage for a total of 7 days.
# A reference solution containing capsaicin 0.06 mg/ml in methanol was prepared. Samples were centrifuged for 20 minutes at 15000 rpm. The resultant supernatant from each vial was carefully transferred to fresh vials. The supernatant from each sample was diluted 1 in 50 with methanol and analyzed by UV at 280 nm using matched quartz cuvettes versus a methanol blank.
# [3] = fold more potent than capsaicin; cited from earlier work
# [4] = pH 5.5, aqueous with cosolvent or surfactant or cyclodextrin, Indicative solubility of capsaicin, Concentration mg/ml
# [5] = pH 7, aqueous with cosolvent or surfactant or cyclodextrin, Indicative solubility of capsaicin, Concentration mg/ml
SMILES,"solubility (physchem [1]; aqueous with cosolvent or surfactant or cyclodextrin, increase of capsaicin solubility for each 1% increase in Tween 80) [µg/mL]","solubility (physchem [1]; organic solvent or mixture, Capsaicin Solubility (mg/ml)) [µg/mL]",solubility at 7 days (physchem [2]; [4]) [µg/mL],solubility at 7 days (physchem [2]; [5]) [µg/mL],"solubility at 4 days (physchem [2]; aqueous with cosolvent or surfactant or cyclodextrin, solubility of capsaicin gel formulations) [µg/mL]",solubility at 4 days (physchem [2]; [4]) [µg/mL],solubility at 4 days (physchem [2]; [5]) [µg/mL],"solubility at 4 days (physchem [2]; pH 7, aqueous with cosolvent or surfactant or cyclodextrin, capsaicin solubility in isotonic gel vehicles) [µg/mL]","Indicative solubility of capsaicin, Concentration mg/ml (physchem [2]; pH 5.5) [mg/mL]","Indicative solubility of capsaicin, Concentration mg/ml (physchem [2]; pH 7) [mg/mL]",capsaicin concentration in gel formulations (physchem [2]; gel formulations stored at 2-8° C.) [mg/mL],potency relative to capsaicin [3]
"COc1cc(CNC(=O)CCCC/C=C/C(C)C)ccc1O [Capsaicin, N-(4-hydroxy-3-methoxybenzyl)-8-methylnon-trans-6-enamide]",~1000,160000,2200,2000,2000,2200,2100,~2000,2.1,1.9,2,–
C=C(C)[C@]12C[C@@H](C)[C@@]34O[C@](Cc5ccccc5)(O[C@@H]1[C@@H]3C=C(COC(=O)Cc1ccc(O)c(OC)c1)C[C@]1(O)C(=O)C(C)=C[C@@H]41)O2 [Resiniferatoxin],–,–,–,–,–,–,–,–,–,–,–,103-104 fold

# Reference: patent publication US20060148903A1, “Capsaicinoid gel formulation and uses thereof” (AlgoRx Pharmaceuticals, Inc., priority 2004, published 2006)
